Data from ChEMBL document CHEMBL3991601, “The target landscape of clinical kinase drugs” (Science, 2017).
Calls of active or inactive are those of the source.

Key:
[1] = biological target: T1, Serine/threonine-protein kinase TAO1 (Homo sapiens, UniProt Q7L7X3)
T1 sequence (Q7L7X3 whole entry): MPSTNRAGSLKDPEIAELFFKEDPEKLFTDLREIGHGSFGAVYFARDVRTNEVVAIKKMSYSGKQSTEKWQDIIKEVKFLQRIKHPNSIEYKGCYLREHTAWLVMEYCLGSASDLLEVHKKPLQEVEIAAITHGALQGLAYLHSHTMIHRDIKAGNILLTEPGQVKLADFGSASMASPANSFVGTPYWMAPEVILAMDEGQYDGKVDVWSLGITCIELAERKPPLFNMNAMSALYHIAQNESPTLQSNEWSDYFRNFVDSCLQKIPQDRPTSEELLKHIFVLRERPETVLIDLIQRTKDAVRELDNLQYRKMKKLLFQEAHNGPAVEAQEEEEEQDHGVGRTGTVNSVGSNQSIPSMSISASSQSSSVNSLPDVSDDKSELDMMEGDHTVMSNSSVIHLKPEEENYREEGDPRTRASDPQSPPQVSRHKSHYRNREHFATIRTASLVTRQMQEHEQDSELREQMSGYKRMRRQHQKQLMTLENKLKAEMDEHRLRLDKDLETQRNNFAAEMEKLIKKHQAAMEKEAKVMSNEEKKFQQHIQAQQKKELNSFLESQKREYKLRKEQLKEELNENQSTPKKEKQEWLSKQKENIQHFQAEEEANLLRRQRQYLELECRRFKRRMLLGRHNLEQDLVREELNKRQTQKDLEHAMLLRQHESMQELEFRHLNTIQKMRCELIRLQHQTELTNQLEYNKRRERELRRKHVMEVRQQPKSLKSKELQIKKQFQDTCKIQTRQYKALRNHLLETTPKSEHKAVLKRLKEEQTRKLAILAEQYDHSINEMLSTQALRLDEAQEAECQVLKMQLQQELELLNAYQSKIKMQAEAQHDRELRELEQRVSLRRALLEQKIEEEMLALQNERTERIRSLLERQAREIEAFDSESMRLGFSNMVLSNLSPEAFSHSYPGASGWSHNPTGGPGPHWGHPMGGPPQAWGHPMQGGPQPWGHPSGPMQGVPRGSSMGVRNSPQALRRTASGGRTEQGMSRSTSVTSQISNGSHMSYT

[2] = biological target: T2, RNA cytidine acetyltransferase (Homo sapiens, UniProt Q9H0A0)
T2 sequence (Q9H0A0 whole entry): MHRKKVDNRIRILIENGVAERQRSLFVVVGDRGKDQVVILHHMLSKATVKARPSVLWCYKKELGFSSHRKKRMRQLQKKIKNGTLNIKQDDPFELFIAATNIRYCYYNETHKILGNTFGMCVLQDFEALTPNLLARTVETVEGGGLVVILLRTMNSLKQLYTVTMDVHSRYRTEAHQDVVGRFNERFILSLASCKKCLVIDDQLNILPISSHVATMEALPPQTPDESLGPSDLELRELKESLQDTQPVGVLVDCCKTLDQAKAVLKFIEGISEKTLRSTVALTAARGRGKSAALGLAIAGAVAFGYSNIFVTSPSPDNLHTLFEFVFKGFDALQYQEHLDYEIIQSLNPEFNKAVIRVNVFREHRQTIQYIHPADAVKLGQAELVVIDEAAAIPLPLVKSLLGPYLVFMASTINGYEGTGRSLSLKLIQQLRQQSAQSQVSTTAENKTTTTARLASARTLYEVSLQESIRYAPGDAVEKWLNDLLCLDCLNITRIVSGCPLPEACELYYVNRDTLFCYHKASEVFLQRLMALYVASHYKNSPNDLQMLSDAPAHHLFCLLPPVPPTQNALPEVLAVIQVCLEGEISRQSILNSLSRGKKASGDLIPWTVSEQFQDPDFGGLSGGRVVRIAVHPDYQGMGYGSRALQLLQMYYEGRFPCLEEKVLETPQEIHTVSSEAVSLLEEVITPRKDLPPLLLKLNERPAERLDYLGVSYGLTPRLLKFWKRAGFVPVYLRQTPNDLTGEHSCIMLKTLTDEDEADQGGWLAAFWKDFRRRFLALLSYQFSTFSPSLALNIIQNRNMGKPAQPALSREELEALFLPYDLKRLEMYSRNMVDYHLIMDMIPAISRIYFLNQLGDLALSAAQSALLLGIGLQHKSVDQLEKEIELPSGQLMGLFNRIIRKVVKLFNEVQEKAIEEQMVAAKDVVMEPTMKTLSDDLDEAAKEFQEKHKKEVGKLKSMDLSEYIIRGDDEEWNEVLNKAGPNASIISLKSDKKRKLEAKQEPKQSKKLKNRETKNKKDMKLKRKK

[3] = biological target: Mitogen-activated protein kinase kinase kinase 4 (Homo sapiens, UniProt Q9Y6R4)
Mitogen-activated protein kinase kinase kinase 4, sequence (Q9Y6R4 whole entry): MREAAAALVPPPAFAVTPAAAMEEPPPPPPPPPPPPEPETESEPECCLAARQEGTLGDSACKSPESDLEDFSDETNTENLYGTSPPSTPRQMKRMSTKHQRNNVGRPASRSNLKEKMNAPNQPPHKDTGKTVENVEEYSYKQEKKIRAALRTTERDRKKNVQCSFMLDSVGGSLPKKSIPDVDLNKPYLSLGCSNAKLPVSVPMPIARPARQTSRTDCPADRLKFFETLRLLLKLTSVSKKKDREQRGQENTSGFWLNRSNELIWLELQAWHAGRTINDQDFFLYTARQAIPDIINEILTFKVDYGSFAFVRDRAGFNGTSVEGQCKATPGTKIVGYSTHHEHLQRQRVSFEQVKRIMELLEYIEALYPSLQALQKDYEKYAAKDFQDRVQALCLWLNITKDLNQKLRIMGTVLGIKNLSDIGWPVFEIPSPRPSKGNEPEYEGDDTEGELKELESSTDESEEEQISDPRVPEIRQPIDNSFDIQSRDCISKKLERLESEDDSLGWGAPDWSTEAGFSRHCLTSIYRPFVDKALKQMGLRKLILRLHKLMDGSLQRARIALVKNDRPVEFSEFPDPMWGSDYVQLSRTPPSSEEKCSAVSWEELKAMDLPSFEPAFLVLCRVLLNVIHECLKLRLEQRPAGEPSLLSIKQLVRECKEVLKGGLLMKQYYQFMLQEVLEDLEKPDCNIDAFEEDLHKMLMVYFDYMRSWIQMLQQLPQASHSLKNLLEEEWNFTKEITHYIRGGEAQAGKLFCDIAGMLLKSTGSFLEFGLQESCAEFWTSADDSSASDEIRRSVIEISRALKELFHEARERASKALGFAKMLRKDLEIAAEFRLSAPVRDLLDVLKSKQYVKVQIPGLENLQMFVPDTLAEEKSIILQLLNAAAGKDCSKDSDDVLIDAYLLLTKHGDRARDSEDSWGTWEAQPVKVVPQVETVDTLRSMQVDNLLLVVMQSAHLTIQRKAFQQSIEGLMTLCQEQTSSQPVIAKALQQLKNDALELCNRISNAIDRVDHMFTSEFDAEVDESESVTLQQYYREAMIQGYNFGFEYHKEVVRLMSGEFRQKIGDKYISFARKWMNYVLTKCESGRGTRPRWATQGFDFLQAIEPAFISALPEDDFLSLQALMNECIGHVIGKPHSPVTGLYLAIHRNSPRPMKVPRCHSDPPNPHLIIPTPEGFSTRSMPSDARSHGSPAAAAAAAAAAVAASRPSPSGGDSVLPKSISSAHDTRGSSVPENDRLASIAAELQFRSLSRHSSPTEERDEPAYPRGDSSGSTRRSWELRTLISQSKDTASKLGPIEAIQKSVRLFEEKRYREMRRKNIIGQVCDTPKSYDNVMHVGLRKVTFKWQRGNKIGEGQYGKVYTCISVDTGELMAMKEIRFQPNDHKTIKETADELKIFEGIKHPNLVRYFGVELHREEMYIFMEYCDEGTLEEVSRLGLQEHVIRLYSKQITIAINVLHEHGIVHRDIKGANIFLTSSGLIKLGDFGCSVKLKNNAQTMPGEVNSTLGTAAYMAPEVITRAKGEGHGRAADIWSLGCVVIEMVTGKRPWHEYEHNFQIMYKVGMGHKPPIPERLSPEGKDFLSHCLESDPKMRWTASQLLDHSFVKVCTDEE

[4] = biological target: T3, Electron transfer flavoprotein subunit beta (Homo sapiens, UniProt P38117)
T3 sequence (P38117 whole entry): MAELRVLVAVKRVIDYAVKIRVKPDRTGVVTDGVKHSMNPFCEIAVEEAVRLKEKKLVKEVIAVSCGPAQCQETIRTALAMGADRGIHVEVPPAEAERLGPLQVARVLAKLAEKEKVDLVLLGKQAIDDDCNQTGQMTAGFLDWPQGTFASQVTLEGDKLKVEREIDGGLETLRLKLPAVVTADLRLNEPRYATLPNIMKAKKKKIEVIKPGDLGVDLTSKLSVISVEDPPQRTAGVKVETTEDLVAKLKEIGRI

[5] = biological target: Bone morphogenetic protein receptor type-1A (Homo sapiens, UniProt P36894)
Bone morphogenetic protein receptor type-1A, sequence (P36894 whole entry): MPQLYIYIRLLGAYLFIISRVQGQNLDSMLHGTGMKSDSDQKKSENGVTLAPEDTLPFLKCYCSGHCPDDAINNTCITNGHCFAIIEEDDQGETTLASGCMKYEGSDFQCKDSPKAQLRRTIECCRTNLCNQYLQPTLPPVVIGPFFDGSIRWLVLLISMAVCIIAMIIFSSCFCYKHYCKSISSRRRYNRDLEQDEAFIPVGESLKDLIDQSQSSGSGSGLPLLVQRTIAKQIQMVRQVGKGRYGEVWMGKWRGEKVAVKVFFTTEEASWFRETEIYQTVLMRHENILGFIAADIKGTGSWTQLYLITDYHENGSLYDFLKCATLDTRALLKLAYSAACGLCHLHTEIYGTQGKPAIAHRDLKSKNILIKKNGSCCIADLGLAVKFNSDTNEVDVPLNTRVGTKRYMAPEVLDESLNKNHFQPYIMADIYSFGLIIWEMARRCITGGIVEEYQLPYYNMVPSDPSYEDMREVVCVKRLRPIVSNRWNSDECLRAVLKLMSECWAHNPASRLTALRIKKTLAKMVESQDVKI

[6] = biological target: T4, Serine/threonine-protein kinase STK11 (Homo sapiens, UniProt Q15831)
T4 sequence (Q15831 whole entry): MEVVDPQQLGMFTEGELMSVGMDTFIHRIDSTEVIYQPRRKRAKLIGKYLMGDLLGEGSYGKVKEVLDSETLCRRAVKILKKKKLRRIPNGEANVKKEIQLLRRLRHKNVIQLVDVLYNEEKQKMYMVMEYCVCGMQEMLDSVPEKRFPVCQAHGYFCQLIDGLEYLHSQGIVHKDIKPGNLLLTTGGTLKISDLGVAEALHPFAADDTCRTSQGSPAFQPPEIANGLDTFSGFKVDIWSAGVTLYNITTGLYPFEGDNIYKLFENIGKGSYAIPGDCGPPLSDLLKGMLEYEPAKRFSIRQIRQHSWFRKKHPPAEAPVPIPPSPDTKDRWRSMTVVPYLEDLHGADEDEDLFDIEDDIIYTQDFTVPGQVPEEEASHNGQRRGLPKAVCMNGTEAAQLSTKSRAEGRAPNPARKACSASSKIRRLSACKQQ

[7] = biological target: Glycogen synthase kinase-3 alpha (Homo sapiens, UniProt P49840)
Glycogen synthase kinase-3 alpha, sequence (P49840 whole entry): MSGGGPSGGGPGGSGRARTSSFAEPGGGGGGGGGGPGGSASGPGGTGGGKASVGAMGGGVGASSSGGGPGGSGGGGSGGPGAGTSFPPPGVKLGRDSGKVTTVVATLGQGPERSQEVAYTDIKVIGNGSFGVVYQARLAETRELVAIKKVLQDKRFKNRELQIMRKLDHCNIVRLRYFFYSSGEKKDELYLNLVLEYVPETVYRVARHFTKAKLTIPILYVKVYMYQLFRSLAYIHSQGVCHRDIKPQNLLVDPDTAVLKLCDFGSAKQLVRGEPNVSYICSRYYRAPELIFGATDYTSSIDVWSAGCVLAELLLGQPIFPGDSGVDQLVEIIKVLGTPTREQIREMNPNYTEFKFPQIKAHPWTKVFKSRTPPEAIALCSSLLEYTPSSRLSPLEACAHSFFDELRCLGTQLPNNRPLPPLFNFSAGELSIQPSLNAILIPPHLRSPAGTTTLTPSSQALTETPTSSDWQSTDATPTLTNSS

[8] = biological target: Serine/threonine-protein kinase/endoribonuclease IRE1 (Homo sapiens, UniProt O75460)
Serine/threonine-protein kinase/endoribonuclease IRE1, sequence (O75460 whole entry): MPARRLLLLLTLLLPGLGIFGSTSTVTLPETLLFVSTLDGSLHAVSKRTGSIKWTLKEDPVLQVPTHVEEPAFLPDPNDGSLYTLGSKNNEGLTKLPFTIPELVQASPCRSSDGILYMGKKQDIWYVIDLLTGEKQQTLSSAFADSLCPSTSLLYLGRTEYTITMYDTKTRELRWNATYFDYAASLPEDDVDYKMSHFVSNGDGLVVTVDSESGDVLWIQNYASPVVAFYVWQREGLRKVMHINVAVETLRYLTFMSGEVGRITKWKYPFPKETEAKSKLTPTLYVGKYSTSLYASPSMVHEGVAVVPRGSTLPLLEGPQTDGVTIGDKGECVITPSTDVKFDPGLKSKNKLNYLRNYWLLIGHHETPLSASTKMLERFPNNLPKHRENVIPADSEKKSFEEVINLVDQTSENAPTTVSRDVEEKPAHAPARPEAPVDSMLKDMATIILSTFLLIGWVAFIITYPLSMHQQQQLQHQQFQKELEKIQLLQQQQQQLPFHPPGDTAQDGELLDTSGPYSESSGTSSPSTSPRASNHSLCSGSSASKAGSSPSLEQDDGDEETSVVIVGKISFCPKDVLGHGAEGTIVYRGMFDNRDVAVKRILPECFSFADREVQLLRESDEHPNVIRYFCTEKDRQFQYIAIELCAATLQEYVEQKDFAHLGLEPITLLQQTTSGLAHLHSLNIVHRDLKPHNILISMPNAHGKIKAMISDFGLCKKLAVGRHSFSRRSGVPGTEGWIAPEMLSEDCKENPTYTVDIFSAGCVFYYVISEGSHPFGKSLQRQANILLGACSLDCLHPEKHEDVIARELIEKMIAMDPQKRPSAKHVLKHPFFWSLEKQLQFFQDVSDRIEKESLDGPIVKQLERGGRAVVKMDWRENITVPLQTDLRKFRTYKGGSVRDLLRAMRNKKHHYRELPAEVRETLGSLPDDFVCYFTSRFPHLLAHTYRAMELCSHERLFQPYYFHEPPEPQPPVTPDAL
Further: in the data inactive means no Kd found up to 30 µM.

Compound	Kd [1]	Kd [2]	Kd [3]	Kd [4]	Kd [5]	Kd [6]	Kd [7]	Kd [8]
Cn1ncc(Cl)c1-c1cc(C(=O)N[C@H](CN)Cc2cccc(F)c2)sc1Cl [AFURESERTIB]	> 30 µM (inactive)	> 30 µM (inactive)	> 30 µM (inactive)	> 30 µM (inactive)	> 30 µM (inactive)	> 30 µM (inactive)	> 30 µM (inactive)	> 30 µM (inactive)
CC[C@H](Nc1ncnc2[nH]cnc12)c1nc2cccc(F)c2c(=O)n1-c1ccccc1 [IDELALISIB]	> 30 µM (inactive)	> 30 µM (inactive)	> 30 µM (inactive)	> 30 µM (inactive)	> 30 µM (inactive)	> 30 µM (inactive)	> 30 µM (inactive)	> 30 µM (inactive)
O=C(O)[C@]1(Cc2cccc(Nc3nccs3)n2)CC[C@@H](Oc2cccc(Cl)c2F)CC1 [MK-5108]	> 30 µM (inactive)	> 30 µM (inactive)	> 30 µM (inactive)	> 30 µM (inactive)	> 30 µM (inactive)	> 30 µM (inactive)	> 30 µM (inactive)	> 30 µM (inactive)
CN(C)C(=O)c1cc2cnc(Nc3ccc(N4CCNCC4)cn3)nc2n1C1CCCC1 [RIBOCICLIB]	> 30 µM (inactive)	> 30 µM (inactive)	> 30 µM (inactive)	> 30 µM (inactive)	> 30 µM (inactive)	> 30 µM (inactive)	> 30 µM (inactive)	> 30 µM (inactive)
C[C@@H]1CN(Cc2ccc(F)cc2)[C@@H](C)CN1C(=O)c1cc2c(C(=O)C(=O)N(C)C)cn(C)c2cc1Cl [TALMAPIMOD]	> 30 µM (inactive)	> 30 µM (inactive)	> 30 µM (inactive)	> 30 µM (inactive)	> 30 µM (inactive)	> 30 µM (inactive)	> 30 µM (inactive)	> 30 µM (inactive)
Cn1cc(-c2ccc3nnc(C(F)(F)c4ccc5ncccc5c4)n3n2)cn1 [JNJ-38877605]	> 30 µM (inactive)	> 30 µM (inactive)	> 30 µM (inactive)	> 30 µM (inactive)	> 30 µM (inactive)	> 30 µM (inactive)	> 30 µM (inactive)	> 30 µM (inactive)
CO[C@H]1C[C@@H]2CC[C@@H](C)[C@@](O)(O2)C(=O)C(=O)N2CCCC[C@H]2C(=O)O[C@H]([C@H](C)C[C@@H]2CC[C@@H](OCCO)[C@H](OC)C2)CC(=O)[C@H](C)/C=C(\C)[C@@H](O)[C@@H](OC)C(=O)[C@H](C)C[C@H](C)/C=C/C=C/C=C/1C [EVEROLIMUS]	> 30 µM (inactive)	> 30 µM (inactive)	> 30 µM (inactive)	> 30 µM (inactive)	> 30 µM (inactive)	> 30 µM (inactive)	> 30 µM (inactive)	> 30 µM (inactive)
Cc1ccc(-n2nc(C(C)(C)C)cc2NC(=O)NCc2cc(F)ccc2Oc2ccc3c(cnn3CCO)c2)cc1 [PEXMETINIB]	> 30 µM (inactive)	> 30 µM (inactive)	> 30 µM (inactive)	> 30 µM (inactive)	> 30 µM (inactive)	> 30 µM (inactive)	> 30 µM (inactive)	> 30 µM (inactive)
CC(=O)Nc1cccc(-n2c(=O)n(C3CC3)c(=O)c3c(Nc4ccc(I)cc4F)n(C)c(=O)c(C)c32)c1 [TRAMETINIB]	> 30 µM (inactive)	> 30 µM (inactive)	> 30 µM (inactive)	> 30 µM (inactive)	> 30 µM (inactive)	> 30 µM (inactive)	> 30 µM (inactive)	> 30 µM (inactive)
COC(=O)N[C@@H](C)CNc1nccc(-c2cn(C(C)C)nc2-c2cc(Cl)cc(NS(C)(=O)=O)c2F)n1 [ENCORAFENIB]	> 30 µM (inactive)	> 30 µM (inactive)	1.44 µM (active)	> 30 µM (inactive)	> 30 µM (inactive)	> 30 µM (inactive)	5.26 µM (active)	> 30 µM (inactive)
O=C(Nc1ccc(-c2ccnc(Nc3ccc(N4CCOCC4)cc3)n2)cc1)C1CCCN1 (stereo not given) [XL-019]	> 30 µM (inactive)	> 30 µM (inactive)	> 30 µM (inactive)	> 30 µM (inactive)	> 30 µM (inactive)	> 30 µM (inactive)	> 30 µM (inactive)	> 30 µM (inactive)
Cc1ccc(NC(=O)c2ccc(CN3CC[C@H](N(C)C)C3)c(C(F)(F)F)c2)cc1Nc1nccc(-c2cncnc2)n1 [BAFETINIB]	> 30 µM (inactive)	> 30 µM (inactive)	> 30 µM (inactive)	> 30 µM (inactive)	> 30 µM (inactive)	> 30 µM (inactive)	> 30 µM (inactive)	> 30 µM (inactive)
COc1ccc(-c2ccc3c(N4CCOC[C@@H]4C)nc(N4CCOC[C@@H]4C)nc3n2)cc1CO [AZD-8055]	> 30 µM (inactive)	> 30 µM (inactive)	> 30 µM (inactive)	> 30 µM (inactive)	> 30 µM (inactive)	> 30 µM (inactive)	> 30 µM (inactive)	> 30 µM (inactive)
N[C@@H]1CCCN(c2c(/C=C3\SC(=O)NC3=O)cccc2-c2ccccc2)C1	> 30 µM (inactive)	> 30 µM (inactive)	> 30 µM (inactive)	> 30 µM (inactive)	> 30 µM (inactive)	> 30 µM (inactive)	> 30 µM (inactive)	> 30 µM (inactive)
CNC(=O)CN1CCC(Oc2cc3c(Nc4cccc(Cl)c4F)ncnc3cc2OC)CC1 [SAPITINIB]	> 30 µM (inactive)	> 30 µM (inactive)	> 30 µM (inactive)	> 30 µM (inactive)	> 30 µM (inactive)	> 30 µM (inactive)	> 30 µM (inactive)	> 30 µM (inactive)
